Results: ChEMBL document CHEMBL4011588, “Design, synthesis, and biological evaluation of novel 4-anilinoquinazoline derivatives bearing amino acid moiety as potential EGFR kinase inhibitors” (Eur J Med Chem, 2017)
Calls of active or inactive are those of the source. The calls are words filed in the database; no cut-off is given here.

Experiments:
[1] = molecular target: Aurora kinase B (Homo sapiens, UniProt Q96GD4); test: Inhibition of Aurora B (unknown origin) measured after 40 mins by Kinase Glo luminescence assay
[2] = system: HepG2; test: Antiproliferative activity against human HepG2 cells after 72 hrs by sulforhodamine B assay; assay type: functional, cell-based; details: HepG2, 72 h
[3] = system: HepG2; test: Induction of apoptosis in human HepG2 cells assessed as appearance of apoptotic bodies at 2 to 10 uM after 15 mins to 24 hrs by Hoechst 33258 staining based fluorescence microscopic method; assay type: functional, cell-based
[4] = system: HepG2; test: Induction of apoptosis in human HepG2 cells assessed as increase in cleaved caspase-3 level at 5 to 10 uM after 30 mins to 24 hrs by Western blot method; assay type: functional, cell-based
[5] = system: HepG2; test: Induction of apoptosis in human HepG2 cells assessed as decrease in Bcl-2 expression at 2 to 10 uM after 30 mins to 24 hrs by Western blot method; assay type: functional, cell-based
[6] = system: HepG2; test: Induction of apoptosis in human HepG2 cells assessed as increase in cytochrome-c expression at 10 uM after 30 mins to 24 hrs by Western blot method; assay type: functional, cell-based
[7] = molecular target: Vascular endothelial growth factor receptor 2 (Homo sapiens, UniProt P35968); test: Inhibition of VEGFR2 (unknown origin) measured after 40 mins by Kinase Glo luminescence assay
[8] = system: HepG2; test: Induction of apoptosis in human HepG2 cells assessed as nuclear chromatin condensation at 2 to 10 uM after 15 mins to 24 hrs by Hoechst 33258 staining based fluorescence microscopic method; assay type: functional, cell-based
[9] = system: HepG2; test: Induction of apoptosis in human HepG2 cells assessed as early apoptotic cells at 5 uM after 24 to 72 hrs by Annexin V-FITC/propidium iodide staining based flow cytometric method (reference value: 1.28%); assay type: functional
[10] = molecular target: RAF proto-oncogene serine/threonine-protein kinase (Homo sapiens, UniProt P04049); test: Inhibition of RAF (unknown origin) measured after 40 mins by Kinase Glo luminescence assay
[11] = system: HepG2; test: Induction of apoptosis in human HepG2 cells assessed as late apoptotic cells at 5 uM after 24 to 72 hrs by Annexin V-FITC/propidium iodide staining based flow cytometric method (reference value: 4.56%); assay type: functional
[12] = system: HepG2; test: Induction of apoptosis in human HepG2 cells assessed as early apoptotic cells at 2 uM after 24 to 72 hrs by Annexin V-FITC/propidium iodide staining based flow cytometric method (reference value: 1.28%); assay type: functional
[13] = system: HepG2; test: Induction of apoptosis in human HepG2 cells assessed as decrease in mitochondrial membrane potential after 15 mins to 24 hrs by JC1 staining based fluorescence microscopic method; assay type: functional, cell-based
[14] = molecular target: Dual specificity mitogen-activated protein kinase kinase; MEK1/2 (Homo sapiens, UniProt P36507+Q02750); test: Inhibition of MEK (unknown origin) measured after 40 mins by Kinase Glo luminescence assay
[15] = system: HepG2; test: Induction of apoptosis in human HepG2 cells assessed as late apoptotic cells at 10 uM after 24 to 72 hrs by Annexin V-FITC/propidium iodide staining based flow cytometric method (reference value: 4.56%); assay type: functional
[16] = system: HepG2; test: Induction of apoptosis in human HepG2 cells assessed as increase in Bax expression at 2 to 10 uM after 30 mins to 24 hrs by Western blot method; assay type: functional, cell-based
[17] = system: HepG2; test: Induction of apoptosis in human HepG2 cells assessed as early apoptotic cells at 10 uM after 24 to 72 hrs by Annexin V-FITC/propidium iodide staining based flow cytometric method (reference value: 1.28%); assay type: functional
[18] = molecular target: Hepatocyte growth factor receptor (Homo sapiens, UniProt P08581); test: Inhibition of c-MET (unknown origin) measured after 40 mins by Kinase Glo luminescence assay
[19] = system: HepG2; test: Induction of apoptosis in human HepG2 cells assessed as late apoptotic cells at 2 uM after 24 to 72 hrs by Annexin V-FITC/propidium iodide staining based flow cytometric method (reference value: 4.56%); assay type: functional
[20] = system: HepG2; test: Induction of apoptosis in human HepG2 cells after 24 to 72 hrs by Annexin V-FITC/propidium iodide staining based flow cytometric method; assay type: functional, cell-based
[21] = molecular target: Epidermal growth factor receptor (Homo sapiens, UniProt P00533); test: Inhibition of EGFR (unknown origin) measured after 40 mins by Kinase Glo luminescence assay
Sequence of Epidermal growth factor receptor (P00533 whole entry): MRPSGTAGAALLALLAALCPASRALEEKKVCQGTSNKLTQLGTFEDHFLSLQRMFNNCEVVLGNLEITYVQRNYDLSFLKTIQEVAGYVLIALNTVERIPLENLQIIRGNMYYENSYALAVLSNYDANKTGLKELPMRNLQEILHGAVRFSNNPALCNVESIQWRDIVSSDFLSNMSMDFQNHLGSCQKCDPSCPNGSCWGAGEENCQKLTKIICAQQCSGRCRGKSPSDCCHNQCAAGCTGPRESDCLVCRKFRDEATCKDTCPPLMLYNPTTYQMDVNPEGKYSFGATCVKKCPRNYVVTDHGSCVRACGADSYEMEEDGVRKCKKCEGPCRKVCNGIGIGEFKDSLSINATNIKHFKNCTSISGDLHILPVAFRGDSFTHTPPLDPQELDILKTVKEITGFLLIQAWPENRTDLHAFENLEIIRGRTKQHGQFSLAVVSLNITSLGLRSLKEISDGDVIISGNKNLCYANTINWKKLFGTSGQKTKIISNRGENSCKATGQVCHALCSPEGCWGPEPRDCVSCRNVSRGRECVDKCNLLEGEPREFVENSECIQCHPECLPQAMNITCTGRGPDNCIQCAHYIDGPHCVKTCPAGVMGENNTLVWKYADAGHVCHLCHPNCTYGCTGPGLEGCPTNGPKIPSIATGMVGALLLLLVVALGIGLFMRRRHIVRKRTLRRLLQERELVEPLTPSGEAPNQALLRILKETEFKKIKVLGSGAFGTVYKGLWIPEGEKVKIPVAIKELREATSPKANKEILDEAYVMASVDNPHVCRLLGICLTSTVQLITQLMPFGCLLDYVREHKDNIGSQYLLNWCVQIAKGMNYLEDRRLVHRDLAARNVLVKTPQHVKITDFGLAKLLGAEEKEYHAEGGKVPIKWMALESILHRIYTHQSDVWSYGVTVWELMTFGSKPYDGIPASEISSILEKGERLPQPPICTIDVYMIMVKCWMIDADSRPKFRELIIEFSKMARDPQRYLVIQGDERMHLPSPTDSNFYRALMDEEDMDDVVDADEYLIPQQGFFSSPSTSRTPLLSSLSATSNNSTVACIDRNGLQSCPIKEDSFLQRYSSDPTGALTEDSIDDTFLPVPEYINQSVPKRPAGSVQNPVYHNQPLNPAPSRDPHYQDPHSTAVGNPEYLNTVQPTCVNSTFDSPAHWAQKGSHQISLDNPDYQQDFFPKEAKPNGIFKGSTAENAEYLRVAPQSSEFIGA

Sequence of Aurora kinase B (Q96GD4 whole entry): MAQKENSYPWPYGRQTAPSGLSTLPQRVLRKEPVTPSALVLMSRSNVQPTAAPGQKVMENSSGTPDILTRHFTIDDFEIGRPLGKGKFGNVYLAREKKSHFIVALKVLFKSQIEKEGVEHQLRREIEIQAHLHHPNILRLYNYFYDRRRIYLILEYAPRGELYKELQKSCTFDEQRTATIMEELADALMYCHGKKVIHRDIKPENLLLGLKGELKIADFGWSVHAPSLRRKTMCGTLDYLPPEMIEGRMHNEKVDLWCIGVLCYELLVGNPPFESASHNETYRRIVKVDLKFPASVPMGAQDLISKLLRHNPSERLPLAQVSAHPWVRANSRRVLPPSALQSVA
Sequence of Vascular endothelial growth factor receptor 2 (P35968 whole entry): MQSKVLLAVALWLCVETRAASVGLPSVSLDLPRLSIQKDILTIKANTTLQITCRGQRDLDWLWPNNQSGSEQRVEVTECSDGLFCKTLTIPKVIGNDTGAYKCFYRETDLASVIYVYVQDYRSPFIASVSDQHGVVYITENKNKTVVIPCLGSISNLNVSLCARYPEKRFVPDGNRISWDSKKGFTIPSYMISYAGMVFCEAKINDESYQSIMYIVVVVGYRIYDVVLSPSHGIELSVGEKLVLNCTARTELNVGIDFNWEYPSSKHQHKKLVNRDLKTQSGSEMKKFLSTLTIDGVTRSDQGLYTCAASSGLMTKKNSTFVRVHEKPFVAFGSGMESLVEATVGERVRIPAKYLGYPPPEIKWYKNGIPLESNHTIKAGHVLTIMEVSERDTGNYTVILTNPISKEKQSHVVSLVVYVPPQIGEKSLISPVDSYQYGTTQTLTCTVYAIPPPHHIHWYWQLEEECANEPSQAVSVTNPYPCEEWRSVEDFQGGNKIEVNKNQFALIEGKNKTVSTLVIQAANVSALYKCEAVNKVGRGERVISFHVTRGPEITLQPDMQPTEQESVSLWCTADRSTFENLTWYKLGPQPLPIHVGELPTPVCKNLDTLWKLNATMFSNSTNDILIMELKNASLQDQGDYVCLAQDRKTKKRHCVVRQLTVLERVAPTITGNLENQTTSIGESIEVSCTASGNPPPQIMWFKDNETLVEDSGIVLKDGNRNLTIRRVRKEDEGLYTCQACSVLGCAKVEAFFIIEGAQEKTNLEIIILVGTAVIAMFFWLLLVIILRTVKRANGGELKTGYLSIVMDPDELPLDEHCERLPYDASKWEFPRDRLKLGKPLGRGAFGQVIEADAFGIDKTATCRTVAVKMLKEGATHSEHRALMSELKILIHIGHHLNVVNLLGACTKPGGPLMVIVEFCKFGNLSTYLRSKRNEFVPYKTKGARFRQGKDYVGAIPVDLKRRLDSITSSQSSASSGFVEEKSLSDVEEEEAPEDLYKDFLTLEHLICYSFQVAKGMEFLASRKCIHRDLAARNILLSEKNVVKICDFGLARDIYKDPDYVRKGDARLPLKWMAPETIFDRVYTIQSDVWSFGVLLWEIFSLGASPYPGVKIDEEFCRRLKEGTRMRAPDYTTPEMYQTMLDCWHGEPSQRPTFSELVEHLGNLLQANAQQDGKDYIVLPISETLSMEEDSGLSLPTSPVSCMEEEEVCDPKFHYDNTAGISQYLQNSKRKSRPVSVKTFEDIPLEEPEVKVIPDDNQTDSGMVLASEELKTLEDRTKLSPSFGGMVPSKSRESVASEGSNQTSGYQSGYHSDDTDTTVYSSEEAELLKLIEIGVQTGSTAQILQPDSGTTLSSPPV
Sequence of RAF proto-oncogene serine/threonine-protein kinase (P04049 whole entry): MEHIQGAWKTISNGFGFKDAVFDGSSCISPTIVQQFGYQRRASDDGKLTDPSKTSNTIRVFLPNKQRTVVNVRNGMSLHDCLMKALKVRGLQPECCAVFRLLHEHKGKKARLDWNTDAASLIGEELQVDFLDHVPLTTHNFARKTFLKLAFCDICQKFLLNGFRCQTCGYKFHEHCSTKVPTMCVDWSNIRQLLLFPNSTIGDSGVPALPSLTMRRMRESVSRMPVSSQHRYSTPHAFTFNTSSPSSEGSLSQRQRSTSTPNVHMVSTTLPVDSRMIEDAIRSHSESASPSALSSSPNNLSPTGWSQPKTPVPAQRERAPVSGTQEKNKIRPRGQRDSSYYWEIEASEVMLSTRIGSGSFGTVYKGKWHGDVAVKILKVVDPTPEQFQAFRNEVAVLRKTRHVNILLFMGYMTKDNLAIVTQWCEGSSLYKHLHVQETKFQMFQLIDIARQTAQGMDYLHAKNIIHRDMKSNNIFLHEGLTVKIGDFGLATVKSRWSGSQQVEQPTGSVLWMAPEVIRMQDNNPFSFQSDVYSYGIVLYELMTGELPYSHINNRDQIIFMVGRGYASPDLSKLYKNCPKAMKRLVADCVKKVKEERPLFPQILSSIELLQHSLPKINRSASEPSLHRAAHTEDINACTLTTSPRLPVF
Sequence of Hepatocyte growth factor receptor (P08581 whole entry): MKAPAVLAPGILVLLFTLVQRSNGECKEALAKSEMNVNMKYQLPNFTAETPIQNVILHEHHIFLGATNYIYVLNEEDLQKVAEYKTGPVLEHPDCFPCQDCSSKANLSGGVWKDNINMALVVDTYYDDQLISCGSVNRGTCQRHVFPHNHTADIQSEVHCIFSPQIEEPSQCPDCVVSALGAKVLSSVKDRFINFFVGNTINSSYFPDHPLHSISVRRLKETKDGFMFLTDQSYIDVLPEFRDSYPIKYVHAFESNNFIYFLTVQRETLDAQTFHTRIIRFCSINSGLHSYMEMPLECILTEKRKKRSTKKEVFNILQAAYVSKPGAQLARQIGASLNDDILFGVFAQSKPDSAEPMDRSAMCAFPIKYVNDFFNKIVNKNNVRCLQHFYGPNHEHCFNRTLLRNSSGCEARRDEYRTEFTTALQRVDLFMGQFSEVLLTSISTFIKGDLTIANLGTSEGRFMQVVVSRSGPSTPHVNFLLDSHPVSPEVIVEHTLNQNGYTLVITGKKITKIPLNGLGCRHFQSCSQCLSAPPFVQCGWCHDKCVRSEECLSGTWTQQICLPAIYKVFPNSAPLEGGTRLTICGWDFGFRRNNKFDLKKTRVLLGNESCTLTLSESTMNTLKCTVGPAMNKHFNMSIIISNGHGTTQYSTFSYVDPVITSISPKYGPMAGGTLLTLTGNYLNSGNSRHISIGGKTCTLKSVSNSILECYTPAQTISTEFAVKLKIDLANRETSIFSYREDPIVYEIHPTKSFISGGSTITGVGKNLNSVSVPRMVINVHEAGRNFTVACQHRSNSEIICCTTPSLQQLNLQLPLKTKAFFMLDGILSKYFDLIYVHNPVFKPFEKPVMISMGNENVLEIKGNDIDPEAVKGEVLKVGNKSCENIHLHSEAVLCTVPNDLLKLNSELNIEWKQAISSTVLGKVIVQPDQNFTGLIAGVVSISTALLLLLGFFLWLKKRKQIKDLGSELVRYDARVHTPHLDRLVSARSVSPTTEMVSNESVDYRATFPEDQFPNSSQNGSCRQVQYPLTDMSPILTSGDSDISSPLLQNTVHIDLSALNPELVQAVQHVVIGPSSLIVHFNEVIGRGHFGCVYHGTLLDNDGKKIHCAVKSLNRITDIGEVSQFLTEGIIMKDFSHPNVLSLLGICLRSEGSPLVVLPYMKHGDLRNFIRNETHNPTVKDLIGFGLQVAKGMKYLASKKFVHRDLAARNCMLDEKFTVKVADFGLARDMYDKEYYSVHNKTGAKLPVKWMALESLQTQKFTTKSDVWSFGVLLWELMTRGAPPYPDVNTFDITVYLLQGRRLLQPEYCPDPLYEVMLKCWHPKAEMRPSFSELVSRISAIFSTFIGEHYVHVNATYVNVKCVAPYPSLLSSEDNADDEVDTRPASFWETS

Question: `CC(C)(C)OC(=O)NCC(=O)Nc1ccc2ncnc(Nc3cccc(C(F)(F)F)c3)c2c1` was tested. Which IC50 [1] did it give?
Answer: The IC50 was 51 µM.

Question: And the IC50 [2]?
Answer: Its IC50 is > 50 µM.

Question: `CC(C)[C@@H](NC(=O)OC(C)(C)C)C(=O)Nc1ccc2ncnc(Nc3ccc(F)c(Cl)c3)c2c1` was tested. Which IC50 [1] did it give?
Answer: Its IC50 is > 100 µM.

Question: And the IC50 [2]?
Answer: The IC50 was > 50 µM.

Question: Which results are given for `CC(C)(C)OC(=O)NCC(=O)Nc1ccc2ncnc(Nc3cccc(Br)c3)c2c1`?
Answer: Activity [3]: Active; Activity [4]: Active; Activity [5]: Active; Activity [6]: Active; IC50 [7]: 18.7 µM; Activity [8]: Active; Activity [9]: 1.96%; IC50 [10]: 17.3 µM; IC50 [1]: 6.2 µM; Activity [11]: 9.25%; Activity [12]: 2.08%; IC50 [2]: 8.3 µM; Activity [13]: Dose-dependent effect; IC50 [14]: 7.35 µM; Activity [15]: 32.19%; Activity [16]: Active; Activity [17]: 1.53%; IC50 [18]: > 100 µM; Activity [19]: 6.38%; Activity [20]: Dose-dependent effect

Question: Which results are given for `CC(C)[C@@H](NC(=O)OC(C)(C)C)C(=O)Nc1ccc2ncnc(Nc3cccc(C(F)(F)F)c3)c2c1`?
Answer: IC50 [21]: 1.02 µM; IC50 [7]: > 100 µM; IC50 [10]: > 100 µM; IC50 [1]: > 100 µM; IC50 [2]: 4.3 µM; IC50 [14]: > 100 µM; IC50 [18]: 100 to 500 µM

Question: Which IC50 [21] does the source give for `CC(C)C[C@@H](NC(=O)OC(C)(C)C)C(=O)Nc1ccc2ncnc(Nc3ccc(F)c(Cl)c3)c2c1` here?
Answer: The IC50 was 0.14 µM.

Question: What about the IC50 [1] of the same compound?
Answer: The IC50 was > 100 µM.

Question: And the IC50 [2]?
Answer: The IC50 was 13.8 µM.

Question: What does the source list for `CC(C)[C@@H](NC(=O)OC(C)(C)C)C(=O)Nc1ccc2ncnc(Nc3cccc(Br)c3)c2c1`?
Answer: IC50 [1]: > 100 µM; IC50 [2]: > 50 µM

Question: Which results are given for `COc1cc2c(Nc3ccc(NC(=O)c4ccccc4)cc3)ncnc2cc1OCCCN1CCOCC1`?
Answer: IC50 [21]: 0.11 µM; IC50 [2]: 1.4 µM; Activity [15]: 8.86%; Activity [17]: 1.09%

Question: With `C[C@@H](NC(=O)OC(C)(C)C)C(=O)Nc1ccc2ncnc(Nc3ccc(F)c(Cl)c3)c2c1` as the compound, how does the IC50 [21] read?
Answer: The IC50 was > 100 µM.

Question: What about the IC50 [1] of the same compound?
Answer: The IC50 was > 100 µM.

Question: And the IC50 [2]?
Answer: The IC50 was > 50 µM.

Question: Which IC50 [21] does the source give for `CC(C)(C)OC(=O)NCC(=O)Nc1ccc2ncnc(Nc3ccc(F)c(Cl)c3)c2c1` here?
Answer: The IC50 was 0.017 µM.

Question: And the IC50 [1]?
Answer: Its IC50 is 23.7 µM.

Question: What about the IC50 [2] of the same compound?
Answer: The IC50 was 33 µM.

Question: Which IC50 [1] does the source give for `CC(C)C[C@@H](NC(=O)OC(C)(C)C)C(=O)Nc1ccc2ncnc(Nc3cccc(C(F)(F)F)c3)c2c1` here?
Answer: Its IC50 is > 100 µM.

Question: What about the IC50 [2] of the same compound?
Answer: Its IC50 is > 50 µM.

Question: For `C[C@@H](NC(=O)OC(C)(C)C)C(=O)Nc1ccc2ncnc(Nc3cccc(C(F)(F)F)c3)c2c1`, which IC50 [21] is on record?
Answer: Its IC50 is > 100 µM.

Question: What about the IC50 [1] of the same compound?
Answer: Its IC50 is > 100 µM.

Question: And the IC50 [2]?
Answer: Its IC50 is > 50 µM.

Question: Which IC50 [21] does the source give for `CC(C)C[C@@H](NC(=O)OC(C)(C)C)C(=O)Nc1ccc2ncnc(Nc3cccc(Br)c3)c2c1` here?
Answer: Its IC50 is 0.145 µM.

Question: What about the IC50 [1] of the same compound?
Answer: The IC50 was > 100 µM.

Question: And the IC50 [2]?
Answer: Its IC50 is 25 µM.

Question: With `CSCC[C@@H](NC(=O)OC(C)(C)C)C(=O)Nc1ccc2ncnc(Nc3cccc(Br)c3)c2c1` as the compound, how does the IC50 [1] read?
Answer: Its IC50 is > 100 µM.

Question: And the IC50 [2]?
Answer: Its IC50 is > 50 µM.

Question: With `CC[C@H](C)[C@@H](NC(=O)OC(C)(C)C)C(=O)Nc1ccc2ncnc(Nc3ccc(F)c(Cl)c3)c2c1` as the compound, how does the IC50 [1] read?
Answer: Its IC50 is > 100 µM.

Question: What about the IC50 [2] of the same compound?
Answer: Its IC50 is > 50 µM.

Question: How did the IC50 [21] turn out when `CC[C@H](C)[C@@H](NC(=O)OC(C)(C)C)C(=O)Nc1ccc2ncnc(Nc3cccc(Br)c3)c2c1` was run?
Answer: Its IC50 is 0.0555 µM.

Question: And the IC50 [1]?
Answer: The IC50 was > 100 µM.

Question: What about the IC50 [2] of the same compound?
Answer: The IC50 was 34 µM.

Question: Which results are given for `Cc1cccc(C)c1Nc1ncnc2ccc(NC(=O)CNC(=O)OC(C)(C)C)cc12`?
Answer: IC50 [1]: > 100 µM; IC50 [2]: > 50 µM

Question: For `C[C@@H](NC(=O)OC(C)(C)C)C(=O)Nc1ccc2ncnc(Nc3cccc(Br)c3)c2c1`, which IC50 [21] is on record?
Answer: Its IC50 is > 100 µM.

Question: And the IC50 [1]?
Answer: Its IC50 is > 100 µM.

Question: And the IC50 [2]?
Answer: Its IC50 is > 50 µM.

Question: Which IC50 [1] does the source give for `CSCC[C@@H](NC(=O)OC(C)(C)C)C(=O)Nc1ccc2ncnc(Nc3cccc(C(F)(F)F)c3)c2c1` here?
Answer: The IC50 was > 100 µM.

Question: And the IC50 [2]?
Answer: Its IC50 is > 50 µM.

Question: Which results are given for `CSCC[C@@H](NC(=O)OC(C)(C)C)C(=O)Nc1ccc2ncnc(Nc3ccc(F)c(Cl)c3)c2c1`?
Answer: IC50 [1]: > 100 µM; IC50 [2]: > 50 µM

Question: Which results are given for `CC[C@H](C)[C@@H](NC(=O)OC(C)(C)C)C(=O)Nc1ccc2ncnc(Nc3cccc(C(F)(F)F)c3)c2c1`?
Answer: IC50 [1]: > 100 µM; IC50 [2]: > 50 µM
